Holding throughout (format): functional, cell-based
The target of assay [1] is P2Y purinoceptor 4 (Homo sapiens) (UniProt P51582). Kind of assay: Agonist activity at human P2Y4 receptor expressed in human 1321N1 cells coexpressing phospholipase C-activating G protein assessed as inositol phosphate production at 10 uM by scintillation proximity assay.
For assay [2], the target named is T1, P2Y purinoceptor 2 (Homo sapiens, UniProt P41231). Kind of assay: Agonist activity at human P2Y2 receptor expressed in human 1321N1 cells coexpressing phospholipase C-activating G protein assessed as inositol phosphate production by scintillation proximity assay.
The target of assay [3] is T1, P2Y purinoceptor 2. Kind of assay: Agonist activity at human P2Y2 receptor expressed in human 1321N1 cells coexpressing phospholipase C-activating G protein assessed as inositol phosphate production by scintillation proximity assay relative to UTP.
The target of assay [4] is T2, P2Y purinoceptor 6 (Homo sapiens, UniProt Q15077). Kind of assay: Agonist activity at human P2Y6 receptor expressed in human 1321N1 cells coexpressing phospholipase C-activating G protein assessed as inositol phosphate production at 10 uM by scintillation proximity assay.
The target of assay [5] is T2, P2Y purinoceptor 6. The assay can be described thus: Agonist activity at human P2Y6 receptor expressed in human 1321N1 cells coexpressing phospholipase C-activating G protein assessed as inositol phosphate production by scintillation proximity assay.
The target in assay [6] is T1, P2Y purinoceptor 2. The assay can be described thus: Agonist activity at human P2Y2 receptor expressed in human 1321N1 cells coexpressing phospholipase C-activating G protein assessed as inositol phosphate production at 10 uM by scintillation proximity assay.

Structures are written as SMILES. A value given as a limit tells only on which side of the number the result lay.

T1 sequence (P41231 whole entry): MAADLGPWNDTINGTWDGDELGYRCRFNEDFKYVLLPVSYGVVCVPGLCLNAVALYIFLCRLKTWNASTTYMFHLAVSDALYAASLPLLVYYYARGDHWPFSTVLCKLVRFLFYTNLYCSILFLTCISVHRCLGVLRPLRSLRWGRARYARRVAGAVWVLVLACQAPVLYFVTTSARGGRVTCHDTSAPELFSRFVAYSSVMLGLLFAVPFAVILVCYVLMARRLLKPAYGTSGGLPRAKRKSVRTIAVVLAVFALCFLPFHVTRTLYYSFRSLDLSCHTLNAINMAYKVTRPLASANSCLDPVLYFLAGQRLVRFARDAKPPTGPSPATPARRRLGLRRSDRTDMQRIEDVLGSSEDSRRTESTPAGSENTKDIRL
T2 sequence (Q15077 whole entry): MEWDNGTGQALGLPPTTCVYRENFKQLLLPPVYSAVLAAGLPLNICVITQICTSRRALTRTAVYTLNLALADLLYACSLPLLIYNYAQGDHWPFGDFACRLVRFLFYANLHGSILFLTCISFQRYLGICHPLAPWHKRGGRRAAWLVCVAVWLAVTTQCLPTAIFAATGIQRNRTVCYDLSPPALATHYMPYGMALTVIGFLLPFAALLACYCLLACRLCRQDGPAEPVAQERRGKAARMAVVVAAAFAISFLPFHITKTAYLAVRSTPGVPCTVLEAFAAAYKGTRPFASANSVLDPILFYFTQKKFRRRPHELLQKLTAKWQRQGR
Chain of P2Y purinoceptor 4 (Homo sapiens) (P51582 whole entry): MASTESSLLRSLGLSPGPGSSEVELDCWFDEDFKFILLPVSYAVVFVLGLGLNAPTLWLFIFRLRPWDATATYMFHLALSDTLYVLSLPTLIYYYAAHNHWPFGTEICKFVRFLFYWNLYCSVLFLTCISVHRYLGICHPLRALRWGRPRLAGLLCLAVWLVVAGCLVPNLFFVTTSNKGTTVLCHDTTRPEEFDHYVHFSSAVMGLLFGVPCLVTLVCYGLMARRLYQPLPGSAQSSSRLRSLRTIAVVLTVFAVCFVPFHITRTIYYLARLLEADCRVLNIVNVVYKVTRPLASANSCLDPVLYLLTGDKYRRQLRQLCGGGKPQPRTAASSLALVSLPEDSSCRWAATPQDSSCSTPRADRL

With `Nc1ncnc2c1ncn2[C@@H]1O[C@H](CP(=O)(O)OP(=O)(O)OP(=O)(O)O)[C@@H](O)[C@H]1O`, the Emax in assay [1] was < 50%. The EC50 in assay [2] worked out at 1.4 µM.
For the molecule `O=c1ccn([C@@H]2O[C@H](CCP(=O)(O)O)[C@@H](O)[C@H]2O)c(=O)[nH]1`, the concentration giving a half-maximal response (EC50) in assay [2] turned out to be 1.6 µM. Further, the Activity in assay [3] is < 50%.
Consider `O=c1ccn([C@@H]2O[C@H](/C=C/P(=O)(O)OP(=O)(O)OP(=O)(O)O)[C@@H](O)[C@H]2O)c(=O)[nH]1`, for which the maximum response (Emax) in assay [1] is < 50%. Also, the EC50 in assay [2] worked out at 1 µM.
As to `O=c1ccn([C@@H]2O[C@H](COP(=O)(O)OP(=O)(O)OP(=O)(O)O)[C@@H](O)[C@H]2O)c(=O)[nH]1`, the EC50 in assay [4] is > 10 µM.
Take `O=c1ccn([C@@H]2O[C@H](CP(=O)(O)OP(=O)(O)OP(=O)(O)O)[C@@H](O)[C@H]2O)c(=O)[nH]1`: in assay [2], the 50% effective concentration (EC50) was found to be 8.6 µM.
For `O=c1ccn([C@@H]2O[C@H](CP(=O)(O)OP(=O)(O)O)[C@@H](O)[C@H]2O)c(=O)[nH]1`, the EC50 in assay [5] was 1.9 µM; in assay [2], 3.4 µM. The Activity in assay [3] is 50%.
Take `O=c1ccn([C@@H]2O[C@H](COP(=O)(O)OP(=O)(O)C[C@H]3O[C@@H](n4ccc(=O)[nH]c4=O)[C@H](O)[C@@H]3O)[C@@H](O)[C@H]2O)c(=O)[nH]1`: the Emax in assay [6] is < 50%.

Source of the values: ChEMBL document CHEMBL1136919, “Synthesis and P2Y receptor activity of nucleoside 5'-phosphonate derivatives” (Bioorg Med Chem Lett, 2009).
